How the values were obtained:
Type in all cases: in vivo, C57BL/6NTac mice
corticosterone = assay: Serum stress hormone (corticosterone) ELISA in CRS model; conditions: CRS+BA group, 14 days
Protocol: In order to confirm the antidepressant efficacy of bornyl acetate on the animal model of stress depression, an animal model of depression induced by chronic restrained stress (CRS) was prepared. Specifically, the animal model, 8-week-old male C57BL/6NTac mice after birth (Narabiotechnology, Korea; weight 22-24 g) had been stabilized for 1 week. A 50 ml conical tube (SPL Life sciences, Pocheon, Korea) was punched to make a hole, thereby making a restraint frame. The mice were put in the frame and restrained for 2 hours every day for 14 days. After restraint, the mice were allowed to freely ingest water and food in the home cage. Bornyl acetate (25, 50 and 100 mg/kg) was orally administered 1 hour before inducing restrained stress every day. 14 days later, the mice were anesthetized, and the blood was collected. The blood was centrifuged at 5,000 rpm for 15 minutes to separate serum. In order to confirm the level of corticosterone, a stress hormone, in serum, an enzyme-linked immunosorbent assay (ELISA) kit (Enzo life sciences, Farmingdale, NY, USA) was used for analysis.

c-Fos protein = assay: Western blot of c-Fos protein in brain (hippocampus and amygdala) of CRS model; conditions: CRS+BA group
Protocol: In order to confirm the antidepressant efficacy of bornyl acetate on the animal model of stress depression, an animal model of depression induced by chronic restrained stress (CRS) was prepared. Specifically, the animal model, 8-week-old male C57BL/6NTac mice after birth (Narabiotechnology, Korea; weight 22-24 g) had been stabilized for 1 week. A 50 ml conical tube (SPL Life sciences, Pocheon, Korea) was punched to make a hole, thereby making a restraint frame. The mice were put in the frame and restrained for 2 hours every day for 14 days. After restraint, the mice were allowed to freely ingest water and food in the home cage. The hippocampus and amygdala of the brain were excised. They were added to 200 μl of a protein lysis buffer (10 mM Tris, 0.5 mM EDTA, 0.25 M sucrose), and proteins were isolated using a grinder. The isolated protein was quantified by the Bradford method (Bio-rad, USA) using bovine serum albumin (BSA, Sigma, USA), and then 25 μg of the protein was separated by 10% sodium dodecyl sulfate-polyacrylamide gel electrophoresis (SDS-PAGE) and transferred to polyvinylidene difluoride (PVDF) membrane (Gendepot, UK). PVDF membranes were blocked in 5% skimmed milk (BD, USA) for 1 hour. […] Identification and quantitative analysis of proteins were analyzed using an imaging device ChemiDoc XRS+ (Bio-Rad). […]

[1] = tested on: animal model of stress depression induced by chronic restrained stress (CRS); assay: Tail suspension test (TST) in CRS-induced stress depression model; conditions: CRS+BA group, oral daily 1 hour before restraint, day 14, last 4 minutes of 6-minute test; dose not stated
Protocol: In order to confirm the antidepressant efficacy of bornyl acetate on the animal model of stress depression, an animal model of depression induced by chronic restrained stress (CRS) was prepared. Specifically, the animal model, 8-week-old male C57BL/6NTac mice after birth (Narabiotechnology, Korea; weight 22-24 g) had been stabilized for 1 week. A 50 ml conical tube (SPL Life sciences, Pocheon, Korea) was punched to make a hole, thereby making a restraint frame. The mice were put in the frame and restrained for 2 hours every day for 14 days. After restraint, the mice were allowed to freely ingest water and food in the home cage. On the 14th day after chronic restrained stress was induced, the tail tip of the mouse was fixed and hanged upside down on a horizontal bar (1 cm in diameter) installed at a height of about 50 cm from the floor, and then the time of immobility was measured. Measurements were made during the last 4 minutes of the 6-minute test period. Bornyl acetate (25, 50 and 100 mg/kg) of the present invention was dissolved in 0.1 M PBS, and the mixture was orally administered 1 hour before inducing restrained stress every day. Bornyl acetate was administered in a dose per individual of 100 μl.

Compound: CC(=O)OC1CC2CCC1(C)C2(C)C (centres unmarked) [BA, bornyl acetate]
- level of stress hormone (corticosterone) in serum (corticosterone; 50 mg/kg oral): 2869.8 pg/mL
- level of stress hormone (corticosterone) in serum (corticosterone; 100 mg/kg oral): 2202.5 pg/mL
- protein expression of c-Fos (CRS-induced increase) (c-Fos protein; amygdala): significantly inhibited
- protein expression of c-Fos (CRS-induced increase) (c-Fos protein; hippocampus): significantly inhibited
- time of immobility, tail suspension test [1]: 91.4 s
